≈ marks a conversion by molar mass, not a printed value. Where two headings read alike, the source gives them in different places. Positions of bridges follow the written chain, without caps; N, C: chain ends. Non-standard residues stand in square brackets, D forms with d. Residues, ends and D or L forms follow the SMILES beside them. *: point of attachment. Ileψ(thiazoline)Cys = CC[C@H](C)[C@H](N)C1=N[C@H](C(=O)*)CS1; dOrn = NCCC[C@@H](N)C(=O)O
System: Enterococcus faecalis ATCC 51299 strain
Assay: MIC levels of antibiotics against Vancomycin-resistant bacteria
Format: cell-based
Source text: Enterococcus faecalis ATCC 51299 strain was used as Vancomycin-resistant bacteria.

[1] = Enterococcus faecalis, ATCC51299, 16 h; read-out: MIC levels after 16 hours of culture
[2] = Enterococcus faecalis, ATCC51299, 24 h; read-out: MIC levels after 24 hours of culture

| Compound | MIC [1] | MIC [2] | also measured |
| --- | --- | --- | --- |
| CC1(C)S[C@@H]2[C@H](NC(=O)[C@H](N)c3ccccc3)C(=O)N2[C@H]1C(=O)O [Ampicillin] | 0.5 µg/mL (≈ 1.43 µM) | 0.5 µg/mL (≈ 1.43 µM) |  |
| CC[C@H](C)[C@H](N)C1=N[C@H](C(=O)N[C@@H](CC(C)C)C(=O)N[C@H](CCC(=O)O)C(=O)N[C@H](C(=O)N[C@H]2CCCCNC(=O)[C@H](CC(N)=O)NC(=O)[C@@H](CC(=O)O)NC(=O)[C@H](Cc3cnc[nH]3)NC(=O)[C@@H](Cc3ccccc3)NC(=O)[C@H]([C@@H](C)CC)NC(=O)[C@@H](CCCN)NC2=O)[C@@H](C)CC)CS1 [Bacitracin] ({Ileψ(thiazoline)Cys}-L[dE]IK[dOrn]I[dF]H[dD]N; lactam 4-C) | 64 µg/mL (≈ 45 µM) | 128 µg/mL (≈ 90 µM) |  |
| O=C(N[C@H](CO)[C@H](O)c1ccc([N+](=O)[O-])cc1)C(Cl)Cl [Chloramphenicol] | 64 µg/mL (≈ 198 µM) | 128 µg/mL (≈ 396 µM) |  |
| CC[C@H]1OC(=O)[C@H](C)[C@@H](O[C@H]2C[C@@](C)(OC)[C@@H](O)[C@H](C)O2)[C@H](C)[C@@H](O[C@@H]2O[C@H](C)C[C@H](N(C)C)[C@H]2O)[C@](C)(O)C[C@@H](C)C(=O)[C@H](C)[C@@H](O)[C@]1(C)O [Erythromycin] | 512 µg/mL (≈ 698 µM) | > 512 µg/mL |  |
| Cc1onc(-c2ccccc2)c1C(=O)N[C@@H]1C(=O)N2[C@@H]1SC(C)(C)[C@@H]2C(=O)O [Oxacillin] | 32 µg/mL (≈ 79.7 µM) | 64 µg/mL (≈ 159 µM) |  |
| [H]/N=C(/N)N[C@H]1[C@H](O)[C@@H](O)[C@H](O[C@@H]2O[C@@H](C)[C@](O)(C=O)[C@H]2O[C@@H]2O[C@@H](CO)[C@H](O)[C@@H](O)[C@@H]2NC)[C@@H](N/C(N)=N\[H])[C@@H]1O [Streptomycin] | > 512 µg/mL | > 512 µg/mL |  |
| CN(C)[C@@H]1C(O)=C(C(N)=O)C(=O)[C@@]2(O)C(O)=C3C(=O)c4c(O)cccc4[C@@](C)(O)[C@H]3C[C@@H]12 [Tetracycline] | 0.5 µg/mL (≈ 1.13 µM) | 1 µg/mL (≈ 2.25 µM) |  |
| CN[C@H](CC(C)C)C(=O)N[C@H]1C(=O)N[C@@H](CC(N)=O)C(=O)N[C@H]2C(=O)N[C@H]3C(=O)N[C@H](C(=O)N[C@H](C(=O)O)c4cc(O)cc(O)c4-c4cc3ccc4O)[C@H](O)c3ccc(c(Cl)c3)Oc3cc2cc(c3O[C@@H]2O[C@H](CO)[C@@H](O)[C@H](O)[C@H]2O[C@H]2C[C@](C)(N)[C@H](O)[C@H](C)O2)Oc2ccc(cc2Cl)[C@H]1O [Vancomycin] |  |  | MIC (Enterococcus faecalis, ATCC51299, 16 h, read-out: MIC levels after 16 hours of culture): 16 µg/mL (≈ 11 µM); MIC (Enterococcus faecalis, ATCC51299, 24 h, read-out: MIC levels after 24 hours of culture): 64 µg/mL (≈ 44.2 µM) |
| Gentamicin |  |  | MIC levels after 16 hours of culture (16 hours of culture): >512 µg/mL; MIC levels after 24 hours of culture (24 hours of culture): >512 µg/mL |
| Teicoplanin |  |  | MIC levels after 16 hours of culture (16 hours of culture): 1 µg/mL; MIC levels after 24 hours of culture (24 hours of culture): 1 µg/mL |

— patent publication US20060067923A1, “Preventing agent against drug-resistant bacterial infection” (priority 2004, published 2006)
